Laboratory results published in PubChem BioAssay (NCI).
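Where inhibition never reached the appropriate level, the endpoint shown equals the highest concentration tested. Otherwise, values were interpolated linearly from a five-concentration, 48-hour dose response in 96-well plates. GI50: concentration for 50% inhibition of growth. Definition used: TGI = concentration required for complete inhibition of growth.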

Tests used:
Experiment in all cases: DTP human tumour cell line panel, 48 h
DU-145 prostate = test system: DU-145 prostate
HS 578T breast = test system: HS 578T breast
MDA-MB-231 breast = test system: MDA-MB-231 breast
MDA-MB-435 = test system: MDA-MB-435
PC-3 prostate = test system: PC-3 prostate
DMS 114 small cell lung = test system: DMS 114 small cell lung
LXFL 529 NSCLC = test system: LXFL 529 NSCLC
DLD-1 colon = test system: DLD-1 colon
M19-MEL melanoma = test system: M19-MEL melanoma

SMILES	TGI (DU-145 prostate) [µM]	TGI (HS 578T breast) [µM]	TGI (MDA-MB-231 breast) [µM]	TGI (MDA-MB-435) [µM]	TGI (PC-3 prostate) [µM]	GI50 (DU-145 prostate) [µM]	GI50 (HS 578T breast) [µM]	GI50 (MDA-MB-231 breast) [µM]	GI50 (MDA-MB-435) [µM]	GI50 (PC-3 prostate) [µM]	TGI (DMS 114 small cell lung) [µM]	TGI (LXFL 529 NSCLC) [µM]	TGI (DLD-1 colon) [µM]	TGI (M19-MEL melanoma) [µM]
CC1(C)C2CC(c3ccncc3)ON2C(C)(C)N1O (stereo not drawn)	> 100	> 100	> 100	> 100	> 100									
CCCCNc1nc(NC(C)(C)C)nc(NC(C)(C)C)n1	> 100	> 100	34.8	> 100	> 100	8.82	21.1	2.27	31.8	4.26				
CC#CC(O)(C(=O)OC1CCCN(C)C1)C1=CC=CCC1 (stereo not drawn)	> 100	> 100	> 100	> 100	> 100									
O=[N+]([O-])c1ccc2[nH]cc(-c3c4ccsc4cc4[nH]c5ccc([N+](=O)[O-])cc5c34)c2c1	2.69	5.49	5.75	33.3	6.36	0.833	0.824	1.2	0.145	0.931				
CCN(CC)CCNc1c(OC)cc(C)c2sc3ccccc3c(=O)c12	24.2	24.8	10.1	8.16	20.8									
CN1CCN(Cc2ccc(NC(=O)c3cncc(C#Cc4cnc(N)c5ccc(F)cc45)c3)cc2C(F)(F)F)CC1	5.01	12.2	3.66	4.99	6.68	1.25	1.17	0.936	1.24	1.39				
CC(=O)CC1CCC(=O)CCC(=O)OC(CC(C)=O)CCC(=O)CCC(=O)O1 (stereo not drawn)	> 100	> 100	> 100	> 100	> 100									
S=C(Nc1ccc(-c2nc3ccccc3[nH]2)cc1)NC1CCCCC1			43.1	43.3		37.9	26.1	18.1	16.4	36.6				
O=c1ccn(C2OC(CO)C(O)C2O)c(=O)[nH]1 (stereo not drawn)	> 1000	> 1000	> 1000	> 1000	> 1000		> 1000		> 1000	> 1000				
C=CCn1c(C)nc2cc(Nc3nc(Nc4ccc5nc(C)n(CC=C)c5c4)c4ccccc4n3)ccc21	1.34	5.22				0.389	2.02							
CN(C)CCNc1nc2ccccc2c2c1c1c(n2Cc2ccccc2)-c2ccccc2C1=O	30.6	31.5	32.1	35.5		15	11.3	16.5	16.8					
Cc1cc(/C=C2\SC(=Nc3ccccc3)N(C3CCCC3)C2=O)c(C)n1-c1ccc(Cl)cc1	> 100	> 100	> 100	> 100	> 100	> 100	> 100	> 100	> 100	75.5				
Cc1cc(S(=O)(=O)Nc2nc(N)nc(N3N=CCC3C)n2)c(S)cc1Cl (stereo not drawn)	> 10	> 10			> 10									
Nc1c(C(=O)c2ccccc2)sc2nc(-c3cccs3)ccc12	10	12.7	5.7	1.03	10.1	0.299	0.474	1.23	0.027	0.176				
Oc1ccc(N=Nc2ccc(Cl)cc2)cc1	30.8	73.3	24.3	29	29.3									
CN1CC(c2ccccc2)N(CCCCN2CC(c3ccccc3)N(C)CC2c2ccccc2)CC1c1ccccc1 (stereo not drawn)	> 100	> 100	> 100	> 100	> 100									
O=C(Oc1ccc(O)c2c(=O)n3c(cc12)[nH]c1ccccc13)c1ccccc1	> 100	> 100	42.1	89.9	56	30.5	41.1	6.22	28.5	18.2				
O=C(O)C1CCc2ccc3ccccc3c2C1c1cccc2ccccc12 (stereo not drawn)	68.8	> 100	85.4	73.7	41.2									
COc1cc2c(cc1OCc1ccccc1)N=C[C@@H]1C/C(=C/C(=O)NCCCN3C(=O)c4cccc5cccc(c45)C3=O)CN1C2=O	11.9	6.51	6.14	3.05	9.35	0.381	0.539	0.708	0.673	0.351				
COc1cc([C@H](C)c2ccc3ccccc3c2)cc(OC)c1OC	> 100	> 100	70.9		> 100	0.494	0.303	0.877		0.346				
CC1=CSC2=NC(c3ccc(Cl)c(Cl)c3)=CC(c3ccc(Cl)cc3)N12 (stereo not drawn)	> 100	> 100	> 100	> 100	> 100	> 100	> 100	> 100	> 100	> 100				
COc1cc2c(cc1C)NC(=O)/C2=C\c1cc(OC)c(OC)c(OC)c1		> 100	59.2	> 100	> 100		58.3	15.8	> 100	> 100				
C=CCNC(=S)N1CC(C)C(=O)Nc2ccccc21 (stereo not drawn)											> 100	> 100		
Nc1ccc(C(=O)N/C(=C\C=C\c2ccco2)c2nc3[nH]c(=S)[nH]c(=O)c3[nH]2)cc1												> 100	> 100	> 100
Cc1cc2nc3c(C(OC4OC(CO)C(O)C(O)C4O)C(O)CO)nn(-c4ccccc4)c3nc2cc1C (stereo not drawn)											> 100		> 100	
c1ccc2c(c1)[I+]c1ccccc1-2	> 50	> 50	> 50	> 50	> 50	35.6	> 50	47.6	> 50	> 50				
